Measurements as given in publication PMC10141580, “Cyclic Dichalcogenides Extend the Reach of Bioreductive Prodrugs to Harness Thiol/Disulfide Oxidoreductases: Applications to seco-Duocarmycins Targeting the Thioredoxin System” (ACS Central Science, 2023).
Where two headings read alike, the source gives them in different places.

Tested on: panel of 140 standard cancer cell lines
Experiment: ProliFiler-140 cancer cell line screen (CellTiterGlo, 72 h)
Assay type: cell-based
Experimental: Incubations were performed for 72 h before automated viability readout with CellTiterGlo (Figure 8).
End of Figure S11 (part 5 of 5): ProliFiler-140 cancer cell line screening for cytotoxicity of the prodrugs.
8-data-point dose response curves from CellTiter-Glo® viability readout.
ProliFiler-140 cell line panel part V

Compound: COc1cc2cc(C(=O)N3C[C@@H](CCl)c4c3cc(OC(=O)N3CCN(C(=O)CCC(=O)N5CCN(C)CC5)[C@H]5CSSC[C@H]53)c3ccccc43)[nH]c2c(OC)c1OC [P-SS66C-CBI-TMI]
- IC50 (read-out: IC50 [M] (ProliFiler-140), BxPC-3 (Pancreas)): 4.6e-08 M
- IC50 (read-out: IC50 [M] (ProliFiler-140), COR-L279 (Lung)): 7.23e-09 M
- IC50 (read-out: IC50 [M] (ProliFiler-140), COV434 (Ovary)): 1.48e-08 M
- IC50 (read-out: IC50 [M] (ProliFiler-140), Calu-6 (Lung)): 5.9e-08 M
- IC50 (read-out: IC50 [M] (ProliFiler-140), Colo 205 (Colon)): 8.61e-08 M
- IC50 (read-out: IC50 [M] (ProliFiler-140), DU-145 (Prostate)): 1.62e-08 M
- IC50 (read-out: IC50 [M] (ProliFiler-140), EFM-19 (Breast)): 3.12e-07 M
- IC50 (read-out: IC50 [M] (ProliFiler-140), EFO-27 (Ovary)): 6.19e-08 M
- IC50 (read-out: IC50 [M] (ProliFiler-140), EPLC-272H (Lung)): 4.6e-08 M
- IC50 (read-out: IC50 [M] (ProliFiler-140), H460 (Lung)): 5.51e-09 M
- IC50 (read-out: IC50 [M] (ProliFiler-140), H1299 (Lung)): 5.4e-08 M
- IC50 (read-out: IC50 [M] (ProliFiler-140), H2228 (Lung)): 4.5e-08 M
- IC50 (read-out: IC50 [M] (ProliFiler-140), HCC202 (Breast)): 9.13e-08 M
- IC50 (read-out: IC50 [M] (ProliFiler-140), HCC827 (Lung)): 9.11e-08 M
- IC50 (read-out: IC50 [M] (ProliFiler-140), HEC-1-B (Endometrium)): 3.99e-07 M
- IC50 (read-out: IC50 [M] (ProliFiler-140), HL-60 (Blood)): 1.52e-08 M
- IC50 (read-out: IC50 [M] (ProliFiler-140), HT-29 (Colon)): 1.05e-07 M
- IC50 (read-out: IC50 [M] (ProliFiler-140), HT-1080 (Fibrosarcoma)): 2.1e-08 M
- IC50 (read-out: IC50 [M] (ProliFiler-140), HeLa (Ovary)): 9.9e-09 M
- IC50 (read-out: IC50 [M] (ProliFiler-140), Hep3B2.1-7 (Liver)): 1.72e-07 M
- IC50 (read-out: IC50 [M] (ProliFiler-140), Hs 746T (Stomach)): 7.52e-08 M
- IC50 (read-out: IC50 [M] (ProliFiler-140), Hutu 80 (Duodenum)): 9.6e-09 M
- IC50 (read-out: IC50 [M] (ProliFiler-140), Ishikawa (Endometrium)): 3.84e-09 M
- IC50 (read-out: IC50 [M] (ProliFiler-140), J82 (Bladder)): 9.6e-08 M
- IC50 (read-out: IC50 [M] (ProliFiler-140), JIMT-1 (Breast)): 1.04e-07 M
- IC50 (read-out: IC50 [M] (ProliFiler-140), JVM-3 (Blood)): 3.4e-09 M
- IC50 (read-out: IC50 [M] (ProliFiler-140), Jurkat (Blood)): 6.2e-09 M
- IC50 (read-out: IC50 [M] (ProliFiler-140), K562 (Blood)): 1.29e-07 M
- IC50 (read-out: IC50 [M] (ProliFiler-140), KG-1 (Blood)): 1.9e-07 M
- IC50 (read-out: IC50 [M] (ProliFiler-140), LOU-NH91 (Lung)): 3.45e-08 M
- IC50 (read-out: IC50 [M] (ProliFiler-140), LP-1 (Blood)): 1.04e-07 M
- IC50 (read-out: IC50 [M] (ProliFiler-140), LnCap (Prostate)): 2.75e-08 M
- IC50 (read-out: IC50 [M] (ProliFiler-140), MCF-7 (Breast)): 3.05e-08 M
- IC50 (read-out: IC50 [M] (ProliFiler-140), MDA-MB-468 (Breast)): 1.87e-08 M
- IC50 (read-out: IC50 [M] (ProliFiler-140), MEC-1 (Blood)): 1.08e-08 M
- IC50 (read-out: IC50 [M] (ProliFiler-140), MKN-1 (Stomach)): 1.38e-07 M
- IC50 (read-out: IC50 [M] (ProliFiler-140), MOLM-13 (Blood)): 5.25e-09 M
- IC50 (read-out: IC50 [M] (ProliFiler-140), MOLT-4 (Blood)): 8.62e-09 M
- IC50 (read-out: IC50 [M] (ProliFiler-140), MV4-11 (Blood)): 1.54e-09 M
- IC50 (read-out: IC50 [M] (ProliFiler-140), NALM-6 (Blood)): 2.5e-09 M
- IC50 (read-out: IC50 [M] (ProliFiler-140), NCI-H82 (Lung)): 8.78e-08 M
- IC50 (read-out: IC50 [M] (ProliFiler-140), NCI-H292 (Lung)): 3.77e-08 M
- IC50 (read-out: IC50 [M] (ProliFiler-140), NCI-H838 (Lung)): 7.44e-08 M
- IC50 (read-out: IC50 [M] (ProliFiler-140), NCI-H1048 (Lung)): 3.97e-09 M
- IC50 (read-out: IC50 [M] (ProliFiler-140), NCI-H1563 (Lung)): 1.14e-07 M
- IC50 (read-out: IC50 [M] (ProliFiler-140), NCI-H1573 (Lung)): 8.97e-08 M
- IC50 (read-out: IC50 [M] (ProliFiler-140), NCI-H1581 (Lung)): 4.7e-08 M
- IC50 (read-out: IC50 [M] (ProliFiler-140), NCI-H1703 (Lung)): 5.11e-08 M
- IC50 (read-out: IC50 [M] (ProliFiler-140), NCI-H2110 (Lung)): 1.81e-08 M
- IC50 (read-out: IC50 [M] (ProliFiler-140), NCI-H2286 (Lung)): 1.67e-08 M
- IC50 (read-out: IC50 [M] (ProliFiler-140), NCI-N87 (Stomach)): 7.55e-08 M
- IC50 (read-out: IC50 [M] (ProliFiler-140), OCI-AML3 (Blood)): 1.32e-08 M
- IC50 (read-out: IC50 [M] (ProliFiler-140), OCI-AML5 (Blood)): 5.98e-09 M
- IC50 (read-out: IC50 [M] (ProliFiler-140), OCI-LY19 (Blood)): 2.8e-09 M
- IC50 (read-out: IC50 [M] (ProliFiler-140), OPM-2 (Blood)): 2.6e-08 M
- IC50 (read-out: IC50 [M] (ProliFiler-140), OV56 (Ovary)): 7.2e-08 M
- IC50 (read-out: IC50 [M] (ProliFiler-140), OVCAR-3 (Ovary)): 7.88e-08 M
- IC50 (read-out: IC50 [M] (ProliFiler-140), OVK18 (Ovary)): 4.6e-08 M
- IC50 (read-out: IC50 [M] (ProliFiler-140), P31/FUJ (Blood)): 2.25e-08 M
- IC50 (read-out: IC50 [M] (ProliFiler-140), PC3 (Prostate)): 4e-08 M
- IC50 (read-out: IC50 [M] (ProliFiler-140), PC-9 (Lung)): 1.41e-08 M
- IC50 (read-out: IC50 [M] (ProliFiler-140), RERF-LC-Ad2 (Lung)): 1.42e-07 M
- IC50 (read-out: IC50 [M] (ProliFiler-140), RKO (Colon)): 2.1e-08 M
- IC50 (read-out: IC50 [M] (ProliFiler-140), SCH (Stomach)): 1.52e-08 M
- IC50 (read-out: IC50 [M] (ProliFiler-140), SCLC-21H (Lung)): 2.6e-08 M
- IC50 (read-out: IC50 [M] (ProliFiler-140), SK-ES-1 (Bone)): 2.7e-09 M
- IC50 (read-out: IC50 [M] (ProliFiler-140), SK-MEL-3 (Skin)): 1.55e-07 M
- IC50 (read-out: IC50 [M] (ProliFiler-140), SK-N-MC (Brain)): 1.61e-09 M
- IC50 (read-out: IC50 [M] (ProliFiler-140), SK-N-SH (Brain)): 1.15e-07 M
- IC50 (read-out: IC50 [M] (ProliFiler-140), SK-OV3 (Ovary)): 3.7e-08 M
- IC50 (read-out: IC50 [M] (ProliFiler-140), SNU-1 (Stomach)): 2.27e-08 M
- IC50 (read-out: IC50 [M] (ProliFiler-140), SNU-216 (Stomach)): 9.2e-08 M
- IC50 (read-out: IC50 [M] (ProliFiler-140), SU-DHL-5 (Blood)): 2.55e-09 M
- IC50 (read-out: IC50 [M] (ProliFiler-140), SW480 (Colon)): 5.5e-08 M
- IC50 (read-out: IC50 [M] (ProliFiler-140), SW-1783 (Brain)): 4.8e-08 M
- IC50 (read-out: IC50 [M] (ProliFiler-140), Saos-2 EC (Bone)): 6.6e-08 M
- IC50 (read-out: IC50 [M] (ProliFiler-140), T98G (Brain)): 8.1e-08 M
- IC50 (read-out: IC50 [M] (ProliFiler-140), T-47D (Breast)): 9.75e-08 M
- IC50 (read-out: IC50 [M] (ProliFiler-140), U118MG (Brain)): 1.9e-07 M
- IC50 (read-out: IC50 [M] (ProliFiler-140), U251MG (Brain)): 1.18e-07 M
- IC50 (read-out: IC50 [M] (ProliFiler-140), U-266 (Blood)): 9.4e-09 M
- IC50 (read-out: antiproliferative IC50 range, range over 140 cell lines): 1e-09 to 1e-07 M
- Reductive Activation Index (span over ProliFiler-140 cell lines): up to 30 fold
